{
  "source": "paper PMC11995724",
  "about": "“Antibiotic target discovery by integrated phenotypic and activity-based profiling of electrophilic fragments” (Cell chemical biology, 2025)",
  "note": "Structures can show the parent of a compound that is named as a salt.",
  "data": [
    {"assay": "in vitro", "details": "human, hek293t cells", "units": {"viability at 48 h, 25 µM": "%"}, "values": [
      {"smiles": "COc1ccc(C(NC(=O)CCl)C(C)C)cc1", "note": "(centres unmarked) [4-A13, 2-chloro-N-[1-(4-methoxyphenyl)-2-methylpropyl]acetamide]", "viability at 48 h, 25 µM": 11.2},
      {"smiles": "CC(Cl)C(=O)Nc1ccc(Cl)cc1C(F)(F)F", "note": "(centres unmarked) [4-A14, 2-chloro-N-[4-chloro-2-(trifluoromethyl)phenyl]propanamide]", "viability at 48 h, 25 µM": 50.2},
      {"smiles": "NC(=O)CSc1ccccc1NC(=O)CCl", "note": "[4-A15, 2-{[2-(2-chloroacetamido)phenyl]sulfanyl}acetamide]", "viability at 48 h, 25 µM": 1.71},
      {"smiles": "Cc1cc(C(C)(C)C)cc(C)c1CCNC(=O)CCl", "note": "[4-A16, N-[2-(4-tert-butyl-2,6-dimethylphenyl)ethyl]-2-chloroacetamide]", "viability at 48 h, 25 µM": 0.58},
      {"smiles": "CC(C)Cc1nnc(NC(=O)CCl)s1", "note": "[4-A17, 2-chloro-N-[5-(2-methylpropyl)-1,3,4-thiadiazol-2-yl]acetamide]", "viability at 48 h, 25 µM": 0.521},
      {"smiles": "CN(CC(=O)NCc1ccco1)C(=O)CCl", "note": "[4-A18, 2-chloro-N-({[(furan-2-yl)methyl]carbamoyl}methyl)-N-methylacetamide]", "viability at 48 h, 25 µM": 0.0249},
      {"smiles": "COc1ccc2cc(CN(C)C(=O)CCl)ccc2c1", "note": "[4-A19, 2-chloro-N-[(6-methoxynaphthalen-2-yl)methyl]-N-methylacetamide]", "viability at 48 h, 25 µM": -0.134},
      {"smiles": "O=C(CCl)Nc1cc(-c2ccccc2)nn1-c1ccccc1", "note": "[4-A20, 2-chloro-N-(1,3-diphenyl-1H-pyrazol-5-yl)acetamide]", "viability at 48 h, 25 µM": 0.296},
      {"smiles": "Cc1ccc(Oc2ccc(Cl)cc2NC(=O)CCl)cc1", "note": "[4-A21, 2-chloro-N-[5-chloro-2-(4-methylphenoxy)phenyl]acetamide]", "viability at 48 h, 25 µM": 98.6},
      {"smiles": "O=C(CCl)N1N=C(c2ccccc2)CC1c1ccc2nccnc2c1", "note": "(centres unmarked) [4-A22, 2-chloro-1-[3-phenyl-5-(quinoxalin-6-yl)-4,5-dihydro-1H-pyrazol-1-yl]ethan-1-one]", "viability at 48 h, 25 µM": 0.127},
      {"smiles": "CC(NC(=O)CCl)c1ccc2c(c1)CCCC2", "note": "(centres unmarked) [4-B03, 2-chloro-N-[1-(5,6,7,8-tetrahydronaphthalen-2-yl)ethyl]acetamide]", "viability at 48 h, 25 µM": 1.06},
      {"smiles": "O=C(CCl)Nc1cc(C(=O)O)cc(C(=O)O)c1", "note": "[4-B04, 5-(2-chloroacetamido)benzene-1,3-dicarboxylic acid]", "viability at 48 h, 25 µM": 107},
      {"smiles": "CN(CC(=O)Nc1ccc(F)cc1)C(=O)CCl", "note": "[4-B05, 2-chloro-N-{[(4-fluorophenyl)carbamoyl]methyl}-N-methylacetamide]", "viability at 48 h, 25 µM": 0.41},
      {"smiles": "O=C(CCl)Nc1cc(Cl)c(Cl)cc1Cl", "note": "[4-B06, 2-chloro-N-(2,4,5-trichlorophenyl)acetamide]", "viability at 48 h, 25 µM": 0.135},
      {"smiles": "CC(NC(=O)c1ccccc1NC(=O)CCl)c1ccccc1", "note": "(centres unmarked) [4-B07, 2-(2-chloroacetamido)-N-(1-phenylethyl)benzamide]", "viability at 48 h, 25 µM": 0.478},
      {"smiles": "COc1ccc(NC(=O)CCl)cc1S(=O)(=O)N1CCCCC1", "note": "[4-B08, 2-chloro-N-[4-methoxy-3-(piperidine-1-sulfonyl)phenyl]acetamide]", "viability at 48 h, 25 µM": 0.454},
      {"smiles": "Cc1cccc(Cc2cnc(NC(=O)CCl)s2)c1", "note": "[4-B09, 2-chloro-N-{5-[(3-methylphenyl)methyl]-1,3-thiazol-2-yl}acetamide]", "viability at 48 h, 25 µM": -0.447},
      {"smiles": "O=C(CCl)Nc1ccc(SC(F)F)cc1", "note": "[4-B10, 2-chloro-N-{4-[(difluoromethyl)sulfanyl]phenyl}acetamide]", "viability at 48 h, 25 µM": -0.0257},
      {"smiles": "O=C(CCl)N(Cc1ccc(F)cc1)C12CC3CC(CC(C3)C1)C2", "note": "[4-B11, N-(adamantan-1-yl)-2-chloro-N-[(4-fluorophenyl)methyl]acetamide]", "viability at 48 h, 25 µM": -0.169},
      {"smiles": "O=C(CCl)Nc1ccc2ccccc2c1", "note": "[4-B12, 2-chloro-N-(naphthalen-2-yl)acetamide]", "viability at 48 h, 25 µM": 0.59},
      {"smiles": "Cc1ccc(C(=O)CN(C(=O)CCl)c2ccccc2)cc1", "note": "[4-B13, 2-chloro-N-[2-(4-methylphenyl)-2-oxoethyl]-N-phenylacetamide]", "viability at 48 h, 25 µM": 0.038},
      {"smiles": "O=C(CCl)Nc1ccc(S(=O)(=O)Nc2nccs2)cc1", "note": "[4-B14, 2-chloro-N-{4-[(1,3-thiazol-2-yl)sulfamoyl]phenyl}acetamide]", "viability at 48 h, 25 µM": 1.19},
      {"smiles": "CC(Cl)C(=O)Nc1c(C(C)C)cccc1C(C)C", "note": "(centres unmarked) [4-B15, N-[2,6-bis(propan-2-yl)phenyl]-2-chloropropanamide]", "viability at 48 h, 25 µM": 93.3},
      {"smiles": "CC(Cl)C(=O)Nc1c(Cl)cccc1Cl", "note": "(centres unmarked) [4-B16, 2-chloro-N-(2,6-dichlorophenyl)propanamide]", "viability at 48 h, 25 µM": 128},
      {"smiles": "CCOC(=O)c1ccccc1NC(=O)CCl", "note": "[4-B17, ethyl 2-(2-chloroacetamido)benzoate]", "viability at 48 h, 25 µM": 45.3},
      {"smiles": "O=C(CCl)Nc1ccccc1S(=O)(=O)C(F)F", "note": "[4-B18, 2-chloro-N-(2-difluoromethanesulfonylphenyl)acetamide]", "viability at 48 h, 25 µM": 38.2},
      {"smiles": "Cc1ccc(C(=O)c2ccccc2)c(NC(=O)CCl)c1", "note": "[4-B19, N-(2-benzoyl-5-methylphenyl)-2-chloroacetamide]", "viability at 48 h, 25 µM": 0.105},
      {"smiles": "O=C(CCl)N(Cc1ccccc1)CC(F)(F)F", "note": "[4-B20, N-benzyl-2-chloro-N-(2,2,2-trifluoroethyl)acetamide]", "viability at 48 h, 25 µM": 1.12},
      {"smiles": "CN(C)C(CNC(=O)CCl)c1ccccc1", "note": "(centres unmarked) [4-B21, 2-chloro-N-[2-(dimethylamino)-2-phenylethyl]acetamide hydrochloride]", "viability at 48 h, 25 µM": 79.8},
      {"smiles": "N#Cc1nc(-c2ccco2)oc1N1CCN(C(=O)CCl)CC1", "note": "[4-B22, 5-[4-(2-chloroacetyl)piperazin-1-yl]-2-(furan-2-yl)-1,3-oxazole-4-carbonitrile]", "viability at 48 h, 25 µM": 0.503},
      {"smiles": "O=C(CCl)Nc1ccccc1C(=O)NCc1ccccc1", "note": "[4-C03, N-benzyl-2-(2-chloroacetamido)benzamide]", "viability at 48 h, 25 µM": 0.33},
      {"smiles": "Cc1c(C#N)c(NC(=O)CCl)n(Cc2cccs2)c1C", "note": "[4-C04, 2-chloro-N-{3-cyano-4,5-dimethyl-1-[(thiophen-2-yl)methyl]-1H-pyrrol-2-yl}acetamide]", "viability at 48 h, 25 µM": 0.255},
      {"smiles": "CCN(CC)C(=O)c1ccc(NC(=O)CCl)cc1", "note": "[4-C05, 4-(2-chloroacetamido)-N,N-diethylbenzamide]", "viability at 48 h, 25 µM": 0.463},
      {"smiles": "Cc1ccc(-c2cc(NC(=O)CCl)n(-c3ccccc3)n2)cc1", "note": "[4-C06, 2-chloro-N-[3-(4-methylphenyl)-1-phenyl-1H-pyrazol-5-yl]acetamide]", "viability at 48 h, 25 µM": -0.283},
      {"smiles": "COc1ccc(C(C)(C)C)cc1NC(=O)CCl", "note": "[4-C07, N-(5-tert-butyl-2-methoxyphenyl)-2-chloroacetamide]", "viability at 48 h, 25 µM": 0.79},
      {"smiles": "CC(Cl)C(=O)N1c2ccccc2NC(=O)C1(C)C", "note": "(centres unmarked) [4-C08, 4-(2-chloropropanoyl)-3,3-dimethyl-1,2,3,4-tetrahydroquinoxalin-2-one]", "viability at 48 h, 25 µM": 69.5},
      {"smiles": "CCCc1ccc(-c2csc(NC(=O)CCl)n2)cc1", "note": "[4-C09, 2-chloro-N-[4-(4-propylphenyl)-1,3-thiazol-2-yl]acetamide]", "viability at 48 h, 25 µM": 1.34},
      {"smiles": "Cc1cccc(NC(=O)c2ccccc2NC(=O)CCl)c1", "note": "[4-C10, 2-(2-chloroacetamido)-N-(3-methylphenyl)benzamide]", "viability at 48 h, 25 µM": -0.0841},
      {"smiles": "O=C(CCl)Nc1ccc(N=Nc2ccccc2)cc1", "note": "[4-C11, 2-chloro-N-[4-(2-phenyldiazen-1-yl)phenyl]acetamide]", "viability at 48 h, 25 µM": 0.339},
      {"smiles": "CC(Cl)C(=O)Nc1ccc(Cl)c(C(F)(F)F)c1", "note": "(centres unmarked) [4-C12, 2-chloro-N-[4-chloro-3-(trifluoromethyl)phenyl]propanamide]", "viability at 48 h, 25 µM": 51},
      {"smiles": "CSc1nsc(NC(=O)CCl)n1", "note": "[4-C13, 2-chloro-N-[3-(methylsulfanyl)-1,2,4-thiadiazol-5-yl]acetamide]", "viability at 48 h, 25 µM": 63.6}
    ]}
  ]
}
